The target in the test is T1, RpACBP-5 (acyl-CoA-binding protein 5) (Rhodnius prolixus, UniProt M4WG04).
T1 construct: recombinant RpACBP-5 expressed in E. coli BL21 (DE3) (GenBank KC417418; 261 bp)
The test can be described thus: isothermal titration calorimetry (VP-ITC, […]°C, pH […]).

Structures are written as SMILES.

For orientation: Kd means the equilibrium constant for the complex coming apart. A low value points to higher affinity.

T1 sequence (M4WG04 entry or part of it): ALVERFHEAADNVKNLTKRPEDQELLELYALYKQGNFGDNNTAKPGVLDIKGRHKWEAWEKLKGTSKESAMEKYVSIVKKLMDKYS

In turn, `CCCCCCCCCCCC(=O)SCCNC(=O)CCNC(=O)[C@H](O)C(C)(C)COP(=O)(O)OP(=O)(O)OC[C@H]1O[C@@H](n2cnc3c(N)ncnc32)[C@H](O)[C@@H]1OP(=O)(O)O` [lauroyl-CoA] yielded a Kd of 399 ± 266 nM.
